Measured values from patent US12338261B2 (SUMITOMO PHARMA ONCOLOGY, INC., priority 2015, dated 2025).
Values joined by “and” are separate entries in the source; they are usually repeats but may differ in a detail not shown here. Equal entries are not always repeated. Where two headings read alike, the source gives them in different places.

What was measured:
[1] = format: in vitro ADME, mouse; conditions: mouse, plasma
Procedure: (§1) The plasma stability of compound IB′ was determined using plasma from four species. Results for mouse, rat, dog and human are shown in Tables 5, 6, 7 and 8 respectively. Alvocidib and flumazenil were used as controls. In mouse, rat and human plasma, compound IB′ maintained 100% stability after 5 hour incubation. In dog plasma, approximately 90% of compound IB′ remained after 5 hours.

[2] = format: in vitro ADME, rat; conditions: rat, plasma
Procedure: as §1

Dog plasma stability = format: in vitro ADME; conditions: dog plasma
Procedure: as §1

Human plasma stability = format: in vitro ADME; conditions: human plasma
Procedure: The plasma stability of compound IB′ was determined using plasma from four species.

[3] = for MTDacute: female SHO SCID mice; for Body weight loss, peak: surviving mice
Procedure: Acute studies were performed in female SHO SCID mice using three animals per treatment group. […] Body weight measurements following oral dosing (FIGS. 2A-B) and intravenous (IV) dosing (FIG. 2C-D) were used, along with mortality and clinical observations to determine the maximum tolerated acute dose (MTDacute).

[4] = Procedure: Repeat dose toxicology studies were performed in female SHO SCID mice using 3 animals per treatment group. […] Body weight measurements of animals treated by oral (see FIGS. 3A-B) and intravenous (see FIG. 3C-D) dosing over the course of the 5-day repeat dosing period and subsequent 5-day observation period, along with mortality and clinical observations, were used to determine the maximum tolerated dosing schedule (MTDrepeat).
[5] = test system: MV4-11 mouse xenograft model of acute myeloid leukemia (AML); assay: Mouse xenograft efficacy study; format: in vivo; conditions: MV4-11 xenograft
Procedure: The in vivo activity of compound IB′ was determined in a MV4-11 mouse xenograft model of acute myeloid leukemia (AML). Injection of 8×10^6 MV4-11 cells/mouse was followed by growth of tumors to approximately 100 mm^3. After tumors reached the appropriate size, mice were randomized into the following treatment groups: Vehicle, compound IB′ (7.5 mg/kg, qdx5x3), compound IB′ (2.5 mg/kg, qdx5x3), compound IB′ (0.1 mg/kg, qdx5x3) and […]. Vehicle and compound IB′ were administered orally, except in the last arm of compound IB′ (7.5 mg/kg, q7dx3), which was dosed intravenously.

MCL-1 protein expression = assay: Mouse xenograft pharmacodynamic study; format: in vivo; conditions: MV4-11 xenograft tumors, 48 hours post-treatment
Procedure: The in vivo pharmacodynamic activity of compound IB′ was determined in a MV4-11 mouse xenograft model of AML (FIG. 6A-B). Injection of 8×10^6 cells/mouse was followed by growth of tumors to approximately 100 mm^3. After tumors reached an appropriate size, mice were randomized into the following treatment groups: Vehicle, compound IB′ (2.5 mg/kg), compound IB′ (0.5 mg/kg), compound IB′ (0.1 mg/kg), compound IB′ (0.02 mg/kg). Mice were administered a single treatment dose and tumors were harvested 48 hours post-treatment. MCL-1 protein levels were assessed on harvested tumors using standard polyacrylamide gel electrophoresis and immunoblotting technique (FIG. 6A).

[6] = CD-1, mouse, in vivo
physchem = conditions: kinetic from dmso stock
[7] = Maximum tolerated acute dose in rats
Procedure: Acute (i.e. single dose) toxicology studies were performed in rats. Acute studies were performed in female Sprague Dawley rats using three animals per treatment group. […] Body weight measurements following oral dosing (see FIG. 4A), along with mortality, clinical observations, food consumption (see FIG. 4B), and complete blood counts (CBCs; see Table 12) were used to determine the maximum tolerated acute dose (MTDacute).

[8] = rats, single oral dose 4.5 mg/kg
[9] = rats, single oral dose 18 mg/kg

Compound: CN1CC[C@H](c2c(OP(=O)(O)O)cc(O)c3c(=O)cc(-c4ccccc4Cl)oc23)[C@H](O)C1 [Compound IB′, 2-(2-chlorophenyl)-5-hydroxy-8-(3-hydroxy-1-methylpiperidin-4-yl)-4-oxo-4H-chromen-7-yl dihydrogen phosphate]
- % Remaining ([1]; 0 h): 100.00%
- % Remaining ([1]; 0.5 h): 88.48%
- % Remaining ([1]; 1 h): 89.83%
- % Remaining ([1]; 2 h): 97.71%
- % Remaining ([1]; 3 h): 99.61%
- % Remaining ([1]; 4 h): 100.46%
- % Remaining ([2]; 0 h): 100.00%
- % Remaining ([2]; 0.5 h): 97.39%
- % Remaining ([2]; 1 h): 94.60%
- % Remaining ([2]; 2 h): 100.04%
- % Remaining ([2]; 3 h): 107.48%
- % Remaining ([2]; 4 h): 100.20%
- % Remaining (Dog plasma stability; 0 hours): 100.00%
- % Remaining (Dog plasma stability; 0.5 hours): 83.66%
- % Remaining (Dog plasma stability; 1 hour): 94.53%
- % Remaining (Dog plasma stability; 2 hours): 112.61%
- % Remaining (Dog plasma stability; 3 hours): 99.16%
- % Remaining (Dog plasma stability; 4 hours): 93.91%
- % Remaining (Human plasma stability; 0 hours): 100.00%
- % Remaining (Human plasma stability; 0.5 hours): 96.32%
- % Remaining (Human plasma stability; 1 hour): 88.01%
- % Remaining (Human plasma stability; 2 hours): 104.22%
- % Remaining (Human plasma stability; 3 hours): 102.59%
- % Remaining (Human plasma stability; 4 hours): 94.36%
- % Remaining (Human plasma stability; 5 hours): 100% and 100.26%
- MTDacute ([3]; single dose, dosed intravenously): 15 mg/kg
- MTDacute ([3]; single dose, dosed orally): 15 mg/kg
- Minor body weight loss, peak ([3]; mice, 15 mg/kg intravenous dosing group, single dose): 3.3%
- clinical observations ([3]; mice, single dose 30 mg/kg and 45 mg/kg): Body weight loss and increased lethargy were observed
- overt toxicity ([3]; mice, single dose orally or intravenously at 15 mg/kg or 7.5 mg/kg): No overt toxicity was observed
- mortality ([3]; mice, single intravenous dose 30 mg/kg): one animal died on day three
- mortality ([3]; mice, single intravenous dose 45 mg/kg): two animals died on day two
- mortality ([3]; mice, single oral dose 30 mg/kg): one animal died on day four
- mortality ([3]; mice, single oral dose 45 mg/kg): one animal died on day two and one animal died on day three
- Body weight loss, peak ([3]; single dose intravenously): 12%
- Body weight loss, peak ([3]; single oral dose, 30 mg/kg group): 17%
- MTDrepeat ([4]; female SHO SCID mice, five daily doses, dosed intravenously): 15 mg/kg
- overt toxicity ([4]; mice, five daily doses, orally 7.5 or 2.5 mg/kg, or any dose level intravenously): No overt toxicity was observed
- mortality ([4]; mice, five daily oral doses 15 mg/kg): one animal died on day 5, and one animal died on day 7
- Body weight loss, peak ([4]; surviving mice, five daily oral doses 15 mg/kg): 12%
- Tumor Growth Inhibition ([5]; 2.5 mg/kg, qdx5x3, orally): 12%
- Tumor Growth Inhibition ([5]; 7.5 mg/kg, q7dx3, intravenously): 74%
- Tumor Growth Inhibition ([5]; 7.5 mg/kg, qdx5x3, orally): 69%
- Reduction of MCL-1 Expression (MCL-1 protein expression; single dose 0.02 mg/kg): 0.0%
- Reduction of MCL-1 Expression (MCL-1 protein expression; single dose 0.1 mg/kg): 46%
- Reduction of MCL-1 Expression (MCL-1 protein expression; single dose 0.5 mg/kg): 61%
- Reduction of MCL-1 Expression (MCL-1 protein expression; single dose 2.5 mg/kg): 54%
- Bioavail. [6]: 182.3 ± 20.0 % F
- solubility kinetic (physchem; pH 2.2, aqueous buffer): > 1000 µg/mL
- solubility (physchem; pH 2.2, aqueous buffer, Solubility): 1900 µg/mL
- solubility kinetic (physchem; pH 6.8, aqueous buffer): > 5000 µg/mL
- solubility kinetic (physchem; pH 8.7, aqueous buffer): > 5000 µg/mL
- MTDacute ([7]; female Sprague Dawley rats, single oral dose): 18 mg/kg
- NOAEL ([7]; female, Sprague Dawley, rat, in vivo, po): 18 mg/kg
- HCT [7, 8]: 49.9%
- MCH [7, 8]: 19.7 pg
- MCHC [7, 8]: 35.9 g/dL
- MCV [7, 8]: 54.8 fL
- PLT [7, 8]: 37.1 10^3/μL
- RBC [7, 8]: 9.1 10^6/μL
- RDWA [7, 8]: 16.2 fL
- WBC [7, 8]: 17.9 10^3/μL
- HCT ([7]; rats, single oral dose 9 mg/kg): 42.7%
- MCH ([7]; rats, single oral dose 9 mg/kg): 19.5 pg
- MCHC ([7]; rats, single oral dose 9 mg/kg): 36.6 g/dL
- MCV ([7]; rats, single oral dose 9 mg/kg): 53.3 fL
- PLT ([7]; rats, single oral dose 9 mg/kg): 35.0 10^3/μL
- RBC ([7]; rats, single oral dose 9 mg/kg): 8.0 10^6/μL
- RDWA ([7]; rats, single oral dose 9 mg/kg): 15.9 fL
- WBC ([7]; rats, single oral dose 9 mg/kg): 15.6 10^3/μL
- platelet counts versus normal range ([7]; rats, single oral dose 9 mg/kg): outside the normal range
- HCT [7, 9]: 31.2%
- MCH [7, 9]: 19.6 pg
- MCHC [7, 9]: 36.6 g/dL
- MCV [7, 9]: 53.5 fL
- PLT [7, 9]: 33.9 10^3/μL
- RBC [7, 9]: 5.9 10^6/μL
- RDWA [7, 9]: 15.7 fL
- WBC [7, 9]: 11.4 10^3/μL
- abnormal food consumption patterns [7, 9]: not observed
- red and white blood cell counts [7, 9]: Slightly reduced
- Body weight loss ([7]; rats, single oral dose 36 mg/kg, preceding death): 13.1%
- overt toxicity ([7]; rats, single oral dose 18, 9, or 4.5 mg/kg): No overt toxicity, including body weight change or diarrhea, was observed
